Where a SMILES comes first, the peptide text is derived from it. The star is where a group is joined. Cbz = O=C(OCc1ccccc1)*; CH2F = FC*
Key:
[1] = system: Ian4−/− BBDP T cells; experiment: Mitochondrial membrane potential (Δψm) by MitoLight flow microfluorometry; format: cell-based, rat; conditions: control incubation with uncoupler, 50 μM, 15 minutes, 37° C.; positive control for dissipation of Δψm
Description: Flat bottom 6-well culture plates (Falcon, Franklin Lakes, N.J.) were incubated with 10 μg/well anti-CD3 mAb, 10 μg/well anti-CD28 mAb, or both, in PBS at 4° C. After overnight incubation, plates were rinsed three times with PBS. Nylon wool-purified T cells were cultured in antibody-coated wells at 6×10^6 cells/well in 3 ml complete AIM-V media (AIM-V plus 55 μM 2-mercaptoethanol, Sigma) for 17, 40, or 68 hr in a humidified incubator at 37° C. with 5% CO2. Un-stimulated cells were incubated in complete AIM-V alone. Mitochondrial membrane potential (Δψm) of thymocytes and T cells was measured by two- or three-color flow microfluorometry using MitoLight™ (Chemicon, Temecula, Calif.) alone or in combination with biotin-conjugated anti-αβTCR mAb. Mitolight™ was employed according to the manufacturer's instructions. It is a lipophilic cation with a cellular distribution similar to that of JC-1. […] When the concentration of JC-1 reaches a threshold, it forms aggregate, causing a shift in its absorbed and emitted fluorescence (S. T. Smiley et al., Proc. Natl. Acad. Sci. U.S.A 88, 3671-3675 (1991)). […] For each experiment control and BBDP T cells were analyzed for both red and green fluorescence after Mitolight™ labeling. […] For each analysis, a minimum of 10,000 events was analyzed.

[2] = system: Lymph node T cells from BBDP rats; experiment: Caspase inhibition, sub-diploid DNA; format: cell-based, rat; conditions: 17 hr of culture, varying concentrations
Description: The percentage of T cells with sub-diploid DNA was measured as described (I. Nicoletti, G. Migliorati, M. C. Pagliacci, F. Grignani, C. Riccardi, J. Immunol. Methods 139, 271-279 (1991)). Briefly, freshly isolated or in vitro stimulated lymph node T cells were washed twice with PBS and centrifuged at 1500 rpm for 5 min. Pellets (2×10^6) were resuspended in 200 μl of PBS, fixed in 70% cold ethanol, and stored at 4° C. until used. At the time of analysis, cells were washed twice with PBS and incubated at 25° C. for 40 min in 500 μl of PBS containing 0.1% Triton X-100 and 50 μg of RNase (Boehringer Mannheim, Indianapolis, Ind.). Propidium iodide (10 μg, Sigma, St. Louis, Mo.) was added, and the suspension was incubated in the dark for 15 min. DNA content was determined by flow microfluorometry using a FACStarR® instrument (Becton Dickinson, San Jose, Calif.). Lymphoid cells were identified electronically by their forward and side light-scatter characteristics. For each analysis, a minimum of 10,000 events was analyzed.
Lymph node T cells from BBDP rats were prepared as described above and cultured in AIM-V medium in the presence or absence of varying concentrations of the caspase inhibitors Z-VAD-FMK, Z-VDVAD, Z-DEVD, D-IETD, and Z-LEHD obtained from R&D Systems (Minneapolis, Minn.). […] Cells were then harvested, and the percentage of cells with sub-diploid DNA was determined as above.

SMILES	percentage of T cells with high Δψm [1] [%]	apoptosis of Ian4−/− T cells (percentage of cells with sub-diploid DNA) [2]
N#CC(C#N)=NNc1cccc(Cl)c1 [CCCP, carbonyl cyanide m-chlorophenyl-hydrazone]	~4	
COC(=O)C[C@H](NC(=O)[C@H](C)NC(=O)[C@@H](NC(=O)OCc1ccccc1)C(C)C)C(=O)CF [Z-VAD-frnk] (Cbz-Val-Ala-Asp(OMe)-CH2F)		prevented apoptosis
